Measurements reported in patent US9750778B2, “Terminalia chebula and Terminalia bellirica extracts for inhibition of xanthine oxidase” (priority 2013, dated 2017).
Several values for one entry are separate records, joined by “and”; a condition that tells them apart may be missing. Equal entries are not always repeated. Marks after values point to notes of the source that are not given here.

Assays:
xanthine oxidase (XO) = experiment: Superoxide radical scavenging assay by NBT hypoxanthine/XO method; assay type: biochemical; details: for % Control (superoxide generation by XO): water blank = 100
Protocol: One T. chebula (TC) based extract was tested at three different dilutions of 5, 25 and 50 μg/mL, and one T. bellerica (TB) based extract was tested at the same three dilutions. Standard positive control was allopurinol (AP) tested at 1, 5 and 10 μg/mL. […] Stock solutions of test materials were prepared at 20 mg/ml in water (TB and TC) or immediately prior to the experiment. Further dilutions were made in type I sterile water and the effect of test materials on XO-mediated free radical (superoxide) generation was assessed as previously described ([…] al., 2008), using hypoxanthine/XO/NBT (tetrazolium salt) system with the reaction product (formazan) followed at 570 nm with the BioRad microplate spectrophotometer 3550-UV. Allopurinol (AP) was the positive control, double-distilled water was the negative control (blank). P values representing statistical significance were calculated using paired t-test and threshold of statistical significance was fixed at p=0.05 and at least 15% difference as compared to the water control.

hyperuricemic patients = experiment: Safety and tolerability assessment in the clinical study; assay type: in vivo, human; details: 8 weeks treatment; 13 patients per group; extracts 500 mg BID, febuxostat 40 mg OD
Protocol: Secondary objective: To evaluate the safety and tolerability of Terminalia chebula and Terminalia bellerica in hyperuricemic patients.
Safety lab investigations for hematological, hepatic and renal biochemical parameters were done at baseline and at the end of the study (8 weeks) and also as and when required (in case of any adverse drug reaction (ADR)). Subjects were interviewed for the presence of ADR and the same was recorded in the case report form (CRF). Compliance to therapy was assessed by pill count method.
The subsequent 2 visits were scheduled at 4 weeks interval (visit 3—after 4 weeks of treatment, visit 4—after 8 weeks of treatment), vital signs, general examination; serum uric acid levels were measured. Pill count for study medication was evaluated. At the (prospective) conclusion of the study, Visit 5 (after 12 weeks post treatment), vital signs, general examination, serum uric acid, routine safety lab investigations will be performed. […] Adverse Effects/SAE monitoring would be done throughout the course of study. Safety lab parameters will be done before and after treatment and as and when required. […]
2. Measurements of Tolerability will be assessed at the end of 8 weeks/12 weeks as: Good—no side effects; Fair—mild to moderate side effects; and/or Poor—severe side effects and withdrawal of therapy.

[1] = test system: serum uric acid levels in patients with hyperuricemia; experiment: Randomized, double blind, placebo controlled clinical study on serum uric acid levels; assay type: in vivo, human; details: extracts 500 mg BID oral, febuxostat 40 mg OD, Mean±SD
Protocol: A randomized, double blind, placebo controlled, parallel-group study was performed to evaluate the effect of Terminalia chebula and Terminalia bellerica in comparison to Febuxostat and a placebo on serum uric acid levels in patients with hyperuricemia. The present study was a prospective, randomized, double blinded, placebo controlled trial. A total of 52 patients were enrolled to receive the study treatment in a randomized manner. The study was approved by the Institutional Ethics Committee and all the subjects gave written informed consent prior to their participation in the study. Hyperuricemia patients of either gender aged between 18 and 70 years were selected, with serum uric acid level ≧6.0 mg/dL and ≦12.0 mg/dL after having stopped all uric acid-lowering therapy for at least 10 days. Patients who were willing to comply with the requirements of the study and to give voluntary, written informed consent were enrolled into the study. Patients with a gout flare during screening or baseline visit were excluded. Patients currently using aspirin or other NSAIDS, diuretics, other medications with known urate-lowering effects were also excluded from the study. Patients with history or presence of nephrolithiasis or uncontrolled hypertension or diabetes, hepatic and renal impairment, pregnant or lactating females or secondary hyperuricemia (e.g. due to myeloproliferative disorder, or organ transplant) were excluded. After screening, all the eligible patients were randomized to either of the four treatment groups in a double blinded fashion for duration of 8 weeks, prospectively 12 weeks. Group 1—Terminalia chebula 500 mg—1 capsule of 500 mg orally twice a day (BID) after food. Group 2—Terminalia bellerica 500 mg—1 capsule of 500 mg orally twice a day (BID) after food. Group 3—Febuxostat—1 tablet of 40 mg (encapsulated in a similar capsule to that of Terminalia chebula/Terminalia bellerica/placebo capsules) once daily (OD) orally in the morning after food and an identical placebo capsule in the evening after food. […] At each visit they were evaluated for efficacy measurements and safety assessments. Serum uric acid levels were measured at baseline, end of 4 weeks, and end of 8 weeks. […] The subsequent 2 visits were scheduled at 4 weeks interval (visit 3—after 4 weeks of treatment, visit 4—after 8 weeks of treatment), vital signs, general examination; serum uric acid levels were measured. Pill count for study medication was evaluated. […] Study data is expressed as Mean±SD. Primary and secondary outcome measures were analyzed as the mean percentage reduction and absolute change in serum uric acid levels from baseline to 4 weeks, 8 weeks, and (prospectively) 12 weeks of treatment. […]

COX-1 = details: cited from earlier work
5-LOX = details: cited from earlier work
COX-2 = target: T1, COX-2 (Homo sapiens, UniProt P35354); details: cited from earlier work
T1 sequence (P35354 18-604): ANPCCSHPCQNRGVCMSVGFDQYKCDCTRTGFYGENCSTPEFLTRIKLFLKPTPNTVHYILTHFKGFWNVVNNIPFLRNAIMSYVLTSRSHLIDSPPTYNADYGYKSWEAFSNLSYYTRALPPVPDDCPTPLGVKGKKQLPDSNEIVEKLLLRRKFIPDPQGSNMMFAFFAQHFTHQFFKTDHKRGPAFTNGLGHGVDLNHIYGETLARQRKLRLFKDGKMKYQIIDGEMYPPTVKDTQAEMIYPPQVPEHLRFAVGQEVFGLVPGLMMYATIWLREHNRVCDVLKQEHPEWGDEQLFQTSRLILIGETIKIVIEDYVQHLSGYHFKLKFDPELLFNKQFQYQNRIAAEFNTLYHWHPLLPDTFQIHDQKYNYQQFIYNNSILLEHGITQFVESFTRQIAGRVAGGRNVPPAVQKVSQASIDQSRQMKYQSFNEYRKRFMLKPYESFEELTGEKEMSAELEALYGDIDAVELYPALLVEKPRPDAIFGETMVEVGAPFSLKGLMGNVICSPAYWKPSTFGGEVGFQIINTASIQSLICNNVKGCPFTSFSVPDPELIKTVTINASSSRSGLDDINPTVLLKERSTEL

HepG2 cells = details: cited from earlier work
maltase = details: reversible and non-competitive inhibitor; read-out: K(i) value, maltase; cited from earlier work
[2] = from baseline, negative = decrease

Oc1ncnc2[nH]ncc12 [AP, allopurinol]
ED50 (dose required for 50% inhibition of XO) (xanthine oxidase (XO)): 6 mg/L | % Control (superoxide generation by XO) (xanthine oxidase (XO); test material at 1 μg/ml): 89% | % Control (superoxide generation by XO) (xanthine oxidase (XO); test material at 5 μg/ml): 54% | % Control (superoxide generation by XO) (xanthine oxidase (XO); test material at 10 μg/ml): 43%

Cc1nc(-c2ccc(OCC(C)C)c(C#N)c2)sc1C(=O)O [Febuxostat]
Adverse effects reported (hyperuricemic patients): Two patients in the Febuxostat group had elevated mildly elevated total bilirubin and 1 patient had complained of nausea and vomiting | Serum Uric Acid level at the end of 4 weeks ([1]; 13 patients per group): 7.23 ± 0.72 mg/dL | Serum Uric Acid level at the end of 8 weeks ([1]; 13 patients per group): 6.08 ± 0.6 mg/dL | Mean Percentage Reduction in Serum Uric Acid Level after 8 weeks [1, 2]: −29.58 ± 5.74 % | Mean Percentage Reduction in Serum Uric Acid at the end of 4 weeks [1, 2]: −16.31 ± 5.32*^NS %

beta-1-O-galloyl-2,4-chebuloyl-3,6-(R)-hexahydroxydiphenoyl-D-glucose [Chebulagic acid]
IC50 (COX-1): 15 ± 0.288 µM | IC50 (5-LOX): 2.1 ± 0.057 µM | IC50 (COX-2): 0.92 ± 0.011 µM | Enhancement of the cytotoxicity of doxorubicin (HepG2 cells): 20 fold | Ki (maltase): 6.6 µM
